# What was measured:
# bacterial infection = conditions: following a 10 day course of treatment with a pharmaceutical formulation
# From the text: A patient suffering from a bacterial infection is identified.
# E. faecalis = conditions: ATCC 29212, control standard
# S. aureus = S. aureus ATCC29213, control standard
# From the text: (§1) They are expressed as milligrams of substance per liter of culture medium.
# E. coli = E. coli ATCC 25922, control standard
# From the text: as §1
# P. aeruginosa = P. aeruginosa ATCC 27853, control standard
# From the text: as §1
smiles,measurement,setting,value
COC1/C=C/OC2(C)Oc3c(C)c(O)c4c([O-])c(c5c([nH]c6cc(C)cc[n+]65)c4c3C2=O)NC(=O)/C(CO)=C\C=C\C(C)C(O)C(C)C(O)C(C)C(OC(C)=O)C1C (centres unmarked) [Example 2],level of bacterial infection in the patient,bacterial infection,reduced
same,M.I.C.,E. faecalis,64 mg/mL
same,M.I.C.,S. aureus,0.5 mg/mL
same,MIC,E. coli,32 µg/mL
same,MIC,P. aeruginosa,32 µg/mL

# From patent US8765778B2, “Rifamycin derivatives” (Alfa Wassermann, S.p.A., priority 2009, dated 2014)
